Measured values reported in US12077501B2, “Compounds and compositions for intracellular delivery of agents” (ModernaTX, Inc., priority 2017, dated 2024).
Blank lines part the entries; values can stand above or below the molecule they belong to.

Experiments:
hEPO = hEPO expression in rats after i.v. administration of nanoparticle compositions (FIGS. 8A, 8B); assay type: in vivo, rat; conditions: rats, 2 mpk, i.v. administration (FIG. 8A)
From the text: PBS (phosphate buffered saline) is used as control. FIG. 8A compares the hEPO concentration after administration of nanoparticle compositions containing Compound 23, Compound 11, KL22, and MC3 at 2 mpk, i.v. administration. […] FIG. 8B illustrates the results of a dose response study using Compound 20, KL22, and MC3 at dose of 0.2, 0.5 and 1 mpk. […] In FIG. 8A, the numbers 1-5 refer to compositions containing the following: 1: Compound 23, 2: Compound 11, 3: KL22; 4: MC3; 5: PBS. In FIG. 8B, the numbers […] refer to compositions containing the following: 1: Compound 20, 0.2 mpk; 2: Compound 20, 0.5 mpk; 3: Compound 20, 1 mpk; 4: KL22, 0.2 mpk; 5: KL22, 0.5 mpk; 6: KL22, 1 mpk; 7: MC3, 0.2 mpk; 8: MC3, 0.5 mpk; 9: MC3, 1 mpk; 10: PBS.

luciferase = assay: Luciferase expression in LDLR −/− knockout and wild-type mice (FIG. 9A); assay type: in vivo, mouse; conditions: 0.05 mpk, 0.25 mpk and 0.5 mpk (FIG. 9A)
From the text: FIG. 9A is a bar graph showing expression of luciferase induced by administration of nanoparticle compositions including Compound 11 at dosages of 0.05 mpk, 0.25 mpk, and 0.5 mpk to LDLR −/− knockout and wild-type mice.

LDL-c = LDL-c levels in LDLR knockout mice after mRNA encoding the LDL receptor (FIG. 9B); assay type: in vivo, mouse; conditions: mRNAs encoding the LDL receptor, Compound 11 at 0.5 and 1 mpk (FIG. 9B)
rats = assay: Tolerability / toxicity in rats (FIGS. 8A, 8B); assay type: in vivo
Luc expression = Luc expression in CD-1 mice compared with MC3; assay type: in vivo; conditions: ratio to MC3, Table 7a
From the text: (§1) In contrast, hEPO expression in rats induced by administration of a nanoparticle composition including a compound according to one of formulae (I), (Ia1)-(Ia6), (Ib), (II), (IIa), (III), and (IIIa) was substantially […] than that measured for MC3. […] Tables 7c and 7d show additional protein expressions and clearance data from compositions with various compounds disclosed herein as compared to with MC3. Tables 7e, 7f and 7g show hEPO expression data in CD-1 mice at a dose of 0.5 mpk.

[1] = Particle size and polydispersity index of nanoparticle compositions (Zetasizer Nano ZS); assay type: physicochemical; conditions: row marked **: Formulated with lipid:Chol:DOPE:PEG 1 30:38.5:30:1.5
Method: A Zetasizer Nano ZS (Malvem Instruments Ltd, Malvem, Worcestershire, UK) can be used to determine the particle size, the polydispersity index (PDI) and the zeta potential of the nanoparticle compositions in 1×PBS in determining particle size and 15 mM PBS in determining zeta potential.

[2] = Lipid clearance: % dose remaining in liver of CD-1 mice; assay type: in vivo; conditions: intravenous, 0.5 mg/kg, CD-1 mouse, Table 8a
Procedure, shortened: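 Nanoparticle compositions of the disclosed lipids given intravenously and benchmarked against MC3. Protein expression reported as AUC (p/s*h) and clearance as % dose remaining in liver of CD-1 mice; hEPO expression in CD-1 mice measured at 0.5 mpk.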

hEPO expression [3] = assay: hEPO expression in CD-1 mice compared with MC3; assay type: in vivo
Procedure, shortened: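 Nanoparticle compositions containing the test compound were dosed to CD-1 mice at 0.5 mpk, and hEPO expression was measured. Clearance data were collected from the same compositions.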

[4] = tested on: hepatocytes and Kupffer cells; assay: Mouse liver immunohistochemistry (IHC) with GFP mRNA (FIGS. 11A, 11B); assay type: in vivo; conditions: LDLR knockout mouse liver, 8h after intravenous administration, 0.5 mpk (FIG. 11B), in contrast to MC3
From the text: FIGS. 11A and 11B are a pair of images comparing the results of a mouse liver immunohistochemistry (IHC) using mRNA expressing green fluorescent protein (GFP) after administration of nanoparticle compositions containing Compound 4 and MC3.

[5] = Purity at start and after storage for 65 h at 25 °C or 37 °C; assay type: physicochemical
[6] = Encapsulation efficiency of RNA (QUANT-IT RIBOGREEN RNA assay); assay type: physicochemical; conditions: row marked **: Formulated with lipid:Chol:DOPE:PEG 1 30:38.5:30:1.5
Procedure, shortened: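 Samples diluted to about 5 μg/mL RNA in TE buffer pH 7.5, treated with buffer or 2% Triton X-100 for 15 min at 37° C, then stained with RiboGreen (1:100). Fluorescence at about 480/520 nm, blank-subtracted; free RNA fraction is intact over Triton-disrupted signal.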

[7] = Characteristics of nanoparticle compositions formulated with PEG-DMG or PEG 1 over 4 weeks; assay type: physicochemical
Method: Formulations were prepared according to Table 13 and included an mRNA encoding hEPO and the particle size, polydispersity index and encapsulation efficiency were recorded on day 1 (week 1), day 8 (week 2), day 15 (week 3), and day 22 (week 4), of the study.

hEPO expression [8] = assay: hEPO (miR126 + miR142) mRNA expression, Tables 8b-8e; assay type: in vivo
[9] = Lipid clearance: % dose remaining, Tables 7c and 8b-8e (species not given); assay type: in vivo
From the text: as §1

hEPO expression [10] = assay: hEPO expression in Cynomolgus monkeys; assay type: in vivo; conditions: 0.05 mg/kg
Method: Nanoparticle compositions of the disclosure, including an mRNA encoding hEPO and comprising a miR binding site, were administered to Cynomolgus monkeys at a dose of 0.05 mg/kg via a 60 min intravenous infusion.

hEPO expression [11] = assay: Expression of hEPO in rats induced by nanoparticle compositions; assay type: in vivo, S.D. rats; conditions: rats, 3, 6 and 24 hours
Method: Formulations were administered intravenously, subcutaneously or intramuscularly to rats (n=3 or 6) at a dosage of 0.2 mg/kg or 0.5 mg/kg (mpk) and hEPO levels measured at 3, 6, and 24 hour time points. After the 48 hour time point, livers and spleens were harvested and frozen.
as §1

[12] = Week 1, 40:20:38.5:1.5 Lipid:DOPE:Chol:PEG 1
[13] = Week 1, 40:20:38.5:1.5 Lipid:DOPE:Chol:PEG-DMG
[14] = Week 2, 40:20:38.5:1.5 Lipid:DOPE:Chol:PEG 1
[15] = Week 2, 40:20:38.5:1.5 Lipid:DOPE:Chol:PEG-DMG
[16] = Week 3, 40:20:38.5:1.5 Lipid:DOPE:Chol:PEG 1
[17] = Week 3, 40:20:38.5:1.5 Lipid:DOPE:Chol:PEG-DMG
[18] = Week 4, 40:20:38.5:1.5 Lipid:DOPE:Chol:PEG 1
[19] = Week 4, 40:20:38.5:1.5 Lipid:DOPE:Chol:PEG-DMG

SMILES: CCCCCCCCCCCCN(CCCCCCCCCCCC)CCN(CCCCCCCCCCCC)CC(=O)N1CCN(C(=O)CN(CCCCCCCCCCCC)CCCCCCCCCCCC)CC1 [Compound 11, 2-(Didodecylamino)-1-(4-(N-(2-(didodecylamino)ethyl)-N-dodecylglycyl)piperazin-1-yl)ethan-1-one]
hEPO concentration after administration of nanoparticle compositions (hEPO): comparable to MC3 | LDLr dependence of luciferase expression (luciferase): LDLr independent lipid | LDL-c levels (LDL-c): found to drop | tolerability (rats; 2 mpk, i.v. (FIG. 8A), compared to KL22): improved tolerability as compared to KL22

SMILES: CCCCCCCCCCCCN(CCCCCCCCCCCC)CCN(CCCCCCCCCCCC)CCN1CCN(CCN(CCCCCCCCC)CCCCCCCCC)CC1 [Compound 23, N^1-(2-(4-(2-(Dinonylamino)ethyl)piperazin-1-yl)ethyl)-N^1,N^2,N^2-tridodecylethane-1,2-diamine]
Lipid/MC3 Luc CD-1 (mice) (Luc expression): several fold higher | toxicity (rats; 2 mg/kg dose): toxic

PDI ([1]; Table 1e): 0.19 | Size (nm) ([1]; Table 1e): 99.2 nm | PDI ([1]; Table 1f): 0.21 | Size (nm) ([1]; Table 1f): 111.5 nm | PDI ([1]; Table 1d): 0.23 | Size (nm) ([1]; Table 1d): 101.5 nm | % Dose Remaining 24 hr [2]: 60.36% | Purity % 25° C. no shaking t = 65 h ([5]; after storage for 65 h at 25° C., no shaking): 99% | Purity % 37° C. shaking t = 65 h ([5]; after storage for 65 h at 37° C., shaking): 99% | Purity % t = 0 h ([5]; beginning of the study, 25° C.): 98% | EE (%) ([6]; Table 1e): 98.6% | EE (%) ([6]; Table 1f): 98.8% | EE (%) ([6]; Table 1d): 99.1% | EE (%) [7, 12]: 98% | PDI [7, 12]: 0.22 | Size (nm) [7, 12]: 101.5 nm | EE (%) [7, 13]: 99% | PDI [7, 13]: 0.23 | Size (nm) [7, 13]: 79.9 nm | EE (%) [7, 14]: 97% | PDI [7, 14]: 0.21 | Size (nm) [7, 14]: 104.1 nm | EE (%) [7, 15]: 99% | PDI [7, 15]: 0.21 | Size (nm) [7, 15]: 79.9 nm | EE (%) [7, 16]: 97% | PDI [7, 16]: 0.2 | Size (nm) [7, 16]: 100.4 nm | EE (%) [7, 17]: 99% | PDI [7, 17]: 0.22 | Size (nm) [7, 17]: 77.3 nm | EE (%) [7, 18]: 97% | PDI [7, 18]: 0.2 | Size (nm) [7, 18]: 101.9 nm | EE (%) [7, 19]: 99% | PDI [7, 19]: 0.21 | Size (nm) [7, 19]: 73.6 nm | % Dose Remaining (liver, 24 h) ([9]; Table 8b): 39.23% | % Dose Remaining (liver, 24 h) ([9]; Table 8c): 37.05% | % Dose Remaining (liver, 24 h) ([9]; Table 8d): 43.02%
SMILES: CCCCCCCCCN(CCCCCCCCC)CCN(CCCCCCCCC)CC(=O)N1CCN(C(=O)CN(CCCCCCCCC)CCCCCCCCC)CC1 [Compound 4, 2-(Dinonylamino)-1-(4-(N-(2-(dinonylamino)ethyl)-N-nonylglycyl)piperazin-1-yl)ethan-1-one]
AUC (p/s*h) CD-1 mice 0.5 mpk (hEPO expression [3]; intramuscular, title: 0.01 mg/kg, Table 7f): 366551 p/s*h | AUC (p/s*h) CD-1 mice 0.5 mpk (hEPO expression [3]; subcutaneous, 0.5 mg/kg, Table 7g): 859874 p/s*h | GFP protein expression in liver cell types (IHC) [4]: less protein expression in Kupffer cells | AUC (hEPO expression [8]; Table 8b): 6.7e+07 pg·h/mL | AUC (hEPO expression [8]; Table 8c): 8.47e+07 pg·h/mL | AUC (hEPO expression [8]; Table 8d): 1.83e+09 pg·h/mL | AUC (mIU/mL*h) (hEPO expression [8]; lipid:Chol:PEG 1 50:47.5:2.5, Table 8e): 2.76E+08 mIU/mL*h | levels of hEPO expression compared to MC3 (hEPO expression [10]): improved levels of hEPO expressions

SMILES: CCCCCCCCCCCCN(CCCCCCCCCCCC)CCN(CCCCCCCCCCCC)CCN1CCN(CCN(CCCCCCCCCCCC(=O)OC)CCCCCCCCCCCC(=O)OC)CC1 [Compound 16, Dimethyl 12,12′-((2-(4-(2-((2-(didodecylamino)ethyl)(dodecyl)amino)ethyl)piperazin-1-yl)ethyl)azanediyl)didodecanoate]
hEPO expression at each time point, rank among compositions of Table 6 (hEPO expression [11]): lowest hEPO expression
